Holding throughout (type): physicochemical
The nature of series [1]: XPS phosphorus over metal ratio on Titanium grade 5 dental implant (prospective data). The conditions noted are these: room temperature comparative process.
Test in series [2]: as above
The following applies: 0.5 mM, sonicated 65° C. 10 min, Metal = Ti2p + Al2s + V2p. On the procedure:
A Titanium grade 5 dental implant (bulk composition atomic concentration Titanium 90%, Aluminum 6%, Vanadium 4%; length 11.0 mm, diameter 3.75 mm) is provided with a roughened surface, produced by sand blasting and acid etching according to industry standards. The dental implant is immersed in 30 ml of a 2% (v/v) aqueous solution of deconex 15 PF-x (which is a phosphate free, potassium hydroxide based standard cleaning agent). The solution is placed in an ultrasonic bath (output frequency 30 kHz) and sonicated at 65° C. for 15 min. The implant is removed from the cleaning agent solution and rinsed with water as follows: 2 times with 30 ml, swirling at room temperature; 4 times with 30 ml, sonicating for 2 min at 65° C.; 1 time with 30 ml, swirling at room temperature. […] The solution is placed in the ultrasonic bath and sonicated at 65° C. for 10 min. The implant is rinsed with water as follows: 2 times with 10 ml, swirling at room temperature; 1 time with 10 ml, sonicating for 2 min at 65° C.; 1 time with 10 ml, swirling at room temperature. The dental implant is dried in a desiccator over P2O5 and under vacuum (ca 20 mbar) for at least 3 hours. The samples are analyzed by X-ray photoelectron spectroscopy (XPS). Same analysis conditions as described in Example 8 are used.

The nature of series [3]: XPS phosphorus over metal ratio on Titanium grade 4 cylinders.
Description: XPS analyses were performed on an Axis Ultra spectrometer from Kratos (Kratos, Manchester, U.K.) equipped with a concentric hemispherical analyzer and using a monochromatized aluminum anode X-ray source (Al Kα1,2 1486.6 eV, full width at half maximum, fwhm=0.85 eV, 15 kV, 150 W). The samples were investigated under ultrahigh vacuum conditions: 10^−8-10^−7 Pa. Spectra were taken at a 90° takeoff angle with respect to the surface. A sample area of 300×700 μm^2 or 700×700 μm^2 was analyzed with a pass energy of 80.0 eV for survey scans. The spectrometer was calibrated by using Cu 2p3/2 (932.7 eV) and Au 4f7/2 (84.0 eV) signals. Surface sensitivity factors used to determine the atomic concentrations were those of the instrument. Spectra were peak fitted after background subtraction by assuming a Gaussian/Lorentzian (90-70/10-30) peak shape. All peaks between 0 eV to 1200 eV were inspected.
Two Titanium grade 4 cylinders (bulk composition atomic concentration Titanium 100%; length 6.0 mm, diameter 2.4 mm) were provided with a roughened surface, produced by sand blasting and acid etching according to industry standards. The cylinders were immersed in 6 ml of a 2% (v/v) aqueous solution of deconex 15 PF-x (which is a phosphate free, potassium hydroxide based standard cleaning agent). The solution was placed in an ultrasonic bath (output frequency 30 kHz) and sonicated at 65° C. for 15 min. The cylinders were removed from the cleaning agent solution and rinsed with water as follows: 2 times with 10 ml, swirling at room temperature; 4 times with 10 ml, sonicating for 2 min at 65° C.; 1 time with 10 ml, swirling at room temperature. The cylinders were then placed into 6 ml of a 0.7 mM aqueous solution of 1,1,3,3-propane tetraphosphonic acid. The solution was placed in the ultrasonic bath and sonicated at 65° C. for 15 min. The cylinders were rinsed with water as follows: 2 times with 10 ml, swirling at room temperature; 1 time with 10 ml, sonicating for 2 min at 65° C.; 1 time with 10 ml, swirling at room temperature. The cylinders were dried in a desiccator over P2O5 and under vacuum (ca 20 mbar) for at least 3 hours.
Two Titanium grade 4 cylinders (bulk composition atomic concentration Titanium 100%; length 6.0 mm, diameter 2.4 mm) were provided with a roughened surface, produced by sand blasting and acid etching according to industry standards. The cylinders were immersed in 6 ml of a 2% (v/v) aqueous solution of deconex 15 PF-x (which is a phosphate free, potassium hydroxide based standard cleaning agent). The solution was placed in an ultrasonic bath (output frequency 30 kHz) and sonicated at room temperature for 15 min. The cylinders were removed from the cleaning agent solution and rinsed with water as follows: 2 times with 10 ml, swirling at room temperature; 4 times with 10 ml, sonicating for 2 min at room temperature; 1 time with 10 ml, swirling at room temperature. The cylinders were then placed into 6 ml of a 0.7 mM aqueous solution of 1,1,3,3-propane tetraphosphonic acid. The solution was swirled thoroughly and left to stand at room temperature for 15 min. The cylinders were rinsed with water as follows: 2 times with 10 ml, swirling at room temperature; 1 time with 10 ml, sonicating for 2 min at room temperature; 1 time with 10 ml, swirling at room temperature. The cylinders were dried in a desiccator over P2O5 and under vacuum (ca 20 mbar) for at least 3 hours.
The mark [4] stands for this setting: Concentration 2 mM, sonicated 65° C. 15 min, Metal = Ti2p.

Where two headings read alike, the source gives them in different places. Marks after values point to notes of the source that are not given here.

Turning to `O=P(O)(O)CCCP(=O)(O)O` [PA-2, propane-1,3-diphosphonic acid], the “Phosphorus/Metal (surface treatment as described in Comp. Example 6)” value in series [1] is 0.05-0.11. For the same compound, the “Phosphorus/Metal (surface treatment as described herein above)” value in series [2] is listed as 0.16-0.20.
Turning to `O=C(CP(=O)(O)O)Oc1ccccc1C(=O)O` [PA-9, 2-(2-phosphonoacetoxy)benzoic acid], in series [1], the “Phosphorus/Metal (surface treatment as described in Comp. Example 6)” value is recorded as 0.05-0.11. Besides, in series [2], the “Phosphorus/Metal (surface treatment as described herein above)” value was 0.16-0.20.
As for `O=P(O)(O)CP(=O)(O)O` [Methylene-1,1-diphosphonic acid], the Phosphorus/Metal in series [3] was 0.10^b.
Consider `CC(O)(P(=O)(O)O)P(=O)(O)O` [PA-10, etidronic acid, reference compound], for which the “Phosphorus/Metal (surface treatment as described in Comp. Example 6)” value in series [1] is 0.05-0.11. Moreover, in series [2], the “Phosphorus/Metal (surface treatment as described herein above)” value is 0.16-0.20. Also, in series [3] (Concentration 1 mM, sonicated 65° C. 15 min, Metal = Ti2p), the Phosphorus/Metal was 0.09^b.
With `O=P(O)(O)c1ccccc1` [PA-6, phenyl-1-phosphonic acid], in series [1], the “Phosphorus/Metal (surface treatment as described in Comp. Example 6)” value is on record as 0.05-0.11. In series [2], the “Phosphorus/Metal (surface treatment as described herein above)” value is 0.16-0.20. For the same compound, in series [3] (setting [4]), the Phosphorus/Metal is 0.03^b.
For `CC(C)(C)P(=O)(O)O` [PA-3, tert-butyl phosphonic acid], in that order: 0.05-0.11, 0.16-0.20 and 0.02^b.
Take `NC(CP(=O)(O)O)C(=O)O` (centres unmarked) [PA-8, 2-amino-3-phosphonopropionic acid]: in series [1], the “Phosphorus/Metal (surface treatment as described in Comp. Example 6)” value is on record as 0.05-0.11. Further, the “Phosphorus/Metal (surface treatment as described herein above)” value in series [2] was 0.16-0.20.
For `C=CCP(=O)(O)O` [PA-4, 1-propene-3-phosphonic acid], the “Phosphorus/Metal (surface treatment as described in Comp. Example 6)” value in series [1] was 0.05-0.11. For the same compound, in series [2], the “Phosphorus/Metal (surface treatment as described herein above)” value was 0.16-0.20.
With `O=P(O)(O)C1CCCCC1` [PA-5, 1-cyclohexyl phosphonic acid], the “Phosphorus/Metal (surface treatment as described in Comp. Example 6)” value in series [1] is on record as 0.05-0.11. In series [2], the “Phosphorus/Metal (surface treatment as described herein above)” value is on record as 0.16-0.20.

Source of the values: patent publication US11000627B2, “Treatment of implants with phosphonic acid compounds” (Nano Bridging Molecules SA, priority 2016, dated 2021).
